The target in one test is GST-Bcl-2 (Homo sapiens, UniProt P10415). Briefly: TR-FRET binding assay, GST-Bcl-2 with F-Bak peptide probe. The note with it: TR-FRET Binding Affinity, GST-Bcl-2, F-Bak peptide probe. The essentials:
(§1)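 Competitive TR-FRET: GST-fusion protein, fluorescent Bak peptide probe and Tb-labelled anti-GST antibody incubated with compound dilution series (starting 50 μM as 2× stock, 10% DMSO) for 3 h at RT. Excitation 340/35 nm; Ki derived via Wang's exact competitive-binding equation.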
(In general: Time-resolved FRET reads energy transfer from a long-lived donor to a nearby acceptor.)

In the next test the target is GST-Bcl-XL (Homo sapiens, UniProt Q07817). Description: TR-FRET binding assay, GST-Bcl-XL with F-Bak peptide probe. The following applies: TR-FRET Binding Affinity, GST-Bcl-XL, F-Bak peptide probe. The essentials:
as §1

Another test has as its system FL5.12/Bcl-2 cells. Briefly: FL5.12/Bcl-2 cell viability assay under IL-3 withdrawal (CellTitre Glo). Type of test: cell-based, murine. The note with it: Mus musculus, IL-3 withdrawn 48 hrs, then 24 hrs with compound. The essentials:
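Viability measured by CellTitre Glo after FL5.12/Bcl-2 murine cells, starved of IL-3 for 48 hrs, were treated with compounds for another 24 hrs. Killing reflects inhibition of Bcl-2 sequestration of Bim and Puma.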

Chain of GST-Bcl-2 (P10415 whole entry, the tested form may be a part): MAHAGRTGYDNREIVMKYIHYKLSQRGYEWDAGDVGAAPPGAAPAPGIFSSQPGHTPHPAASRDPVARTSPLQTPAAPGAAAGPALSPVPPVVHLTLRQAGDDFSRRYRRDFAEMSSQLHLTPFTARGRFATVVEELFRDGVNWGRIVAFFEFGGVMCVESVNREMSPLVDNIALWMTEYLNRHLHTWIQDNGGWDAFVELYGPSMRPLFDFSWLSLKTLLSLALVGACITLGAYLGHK
Chain of GST-Bcl-XL (Q07817 whole entry): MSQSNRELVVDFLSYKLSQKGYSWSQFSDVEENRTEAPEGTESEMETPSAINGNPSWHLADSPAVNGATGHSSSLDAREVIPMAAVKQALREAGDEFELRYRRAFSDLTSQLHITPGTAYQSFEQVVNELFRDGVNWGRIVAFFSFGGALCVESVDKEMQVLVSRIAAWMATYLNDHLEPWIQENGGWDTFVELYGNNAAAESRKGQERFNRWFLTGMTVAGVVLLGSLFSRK

Take `CC(=O)N1CCC(Nc2ccc(S(=O)(=O)NC(=O)c3ccc(N4CCN(CC5=C(c6ccc(Cl)cc6)CC(C)(C)CC5)CC4)cc3Oc3ccc4[nH]ccc4c3)cc2[N+](=O)[O-])CC1` [Example 334, N-({4-[(1-acetylpiperidin-4-yl)amino]-3-nitrophenyl}sulfonyl)-4-(4-{[2-(4-chlorophenyl)-4,4-dimethylcyclohex-1-en-1-yl]methyl}piperazin-1-yl)-2-(1H-indol-5-yloxy)benzamide]: the results for the Ki at GST-Bcl-2 and at GST-Bcl-XL were 0.179 nM and above 660 nM, respectively. Further, in the test on FL5.12/Bcl-2 cells, the EC50 came to 65.9 nM.
For the compound `CC1(C)CCC(CN2CCN(c3ccc(C(=O)NS(=O)(=O)c4ccc(NC5CCN(S(C)(=O)=O)CC5)c([N+](=O)[O-])c4)c(Oc4ccc5[nH]ccc5c4)c3)CC2)=C(c2ccc(Cl)cc2)C1` [Example 335, 4-(4-{[2-(4-chlorophenyl)-4,4-dimethylcyclohex-1-en-1-yl]methyl}piperazin-1-yl)-2-(1H-indol-5-yloxy)-N-[(4-{[1-(methylsulfonyl)piperidin-4-yl]amino}-3-nitrophenyl)sulfonyl]benzamide], the Ki on GST-Bcl-2 was 0.438 nM; on GST-Bcl-XL, above 660 nM. Besides, the EC50 in the test with FL5.12/Bcl-2 cells turned out to be 39 nM.
On to `CC1(C)CCC(CN2CCN(c3ccc(C(=O)NS(=O)(=O)c4ccc(NCC5COCCO5)c([N+](=O)[O-])c4)c(Oc4ccc5[nH]ccc5c4)c3)CC2)=C(c2ccc(Cl)cc2)C1` (stereo not drawn) [Example 336, 4-(4-{[2-(4-chlorophenyl)-4,4-dimethylcyclohex-1-en-1-yl]methyl}piperazin-1-yl)-N-({4-[(1,4-dioxan-2-ylmethyl)amino]-3-nitrophenyl}sulfonyl)-2-(1H-indol-5-yloxy)benzamide], for which the Ki on GST-Bcl-2 was 0.105 nM; at GST-Bcl-XL, 242 nM. In addition, the EC50 with FL5.12/Bcl-2 cells was found to be 7.49 nM.
Turning to `CC(=O)N1CCC(Nc2ccc(S(=O)(=O)NC(=O)c3ccc(N4CCN(CC5=C(c6ccc(Cl)cc6)CC(C)(C)CC5)CC4)cc3Oc3cccc4[nH]ccc34)cc2[N+](=O)[O-])CC1` [Example 337, N-({4-[(1-acetylpiperidin-4-yl)amino]-3-nitrophenyl}sulfonyl)-4-(4-{[2-(4-chlorophenyl)-4,4-dimethylcyclohex-1-en-1-yl]methyl}piperazin-1-yl)-2-(1H-indol-4-yloxy)benzamide], the Ki at GST-Bcl-2 was 0.535 nM; at GST-Bcl-XL, above 660 nM. Besides, the EC50 in the test with FL5.12/Bcl-2 cells amounted to 124 nM.
For `CC1(C)CCC(CN2CCN(c3ccc(C(=O)NS(=O)(=O)c4ccc(NC5CCN(S(C)(=O)=O)CC5)c([N+](=O)[O-])c4)c(Oc4cccc5[nH]ccc45)c3)CC2)=C(c2ccc(Cl)cc2)C1` [Example 338, 4-(4-{[2-(4-chlorophenyl)-4,4-dimethylcyclohex-1-en-1-yl]methyl}piperazin-1-yl)-2-(1H-indol-4-yloxy)-N-[(4-{[1-(methylsulfonyl)piperidin-4-yl]amino}-3-nitrophenyl)sulfonyl]benzamide], in that order: 0.403 nM, above 660 nM and 71.1 nM.
On the same counts, the results for `O=C(NS(=O)(=O)c1ccc(NCC2CCOCC2)c([N+](=O)[O-])c1)c1ccc(N2CCN(Cc3ccc(C(F)(F)F)cc3-c3ccc(Cl)cc3)CC2)cc1Oc1ccc2[nH]ccc2c1` [Example 339, 4-(4-{[4′-chloro-5-(trifluoromethyl)-1,1′-biphenyl-2-yl]methyl}piperazin-1-yl)-2-(1H-indol-5-yloxy)-N-({3-nitro-4-[(tetrahydro-2H-pyran-4-ylmethyl)amino]phenyl}sulfonyl)benzamide] are 14.1 nM, above 660 nM and above 500 nM.
Turning to `O=C(NS(=O)(=O)c1ccc(OCC2CCOCC2)c([N+](=O)[O-])c1)c1ccc(N2CCN(Cc3ccc(C(F)(F)F)cc3-c3ccc(Cl)cc3)CC2)cc1Oc1ccc2[nH]ccc2c1` [Example 340, 4-(4-{[4′-chloro-5-(trifluoromethyl)-1,1′-biphenyl-2-yl]methyl}piperazin-1-yl)-2-(1H-indol-5-yloxy)-N-{[3-nitro-4-(tetrahydro-2H-pyran-4-ylmethoxy)phenyl]sulfonyl}benzamide], the Ki at GST-Bcl-2 was 7.59 nM; at GST-Bcl-XL, above 660 nM. For the same compound, the EC50 in the test on FL5.12/Bcl-2 cells was above 500 nM.

For orientation: Ki means the dissociation constant of the complex between target and ligand, obtained from inhibition or displacement. High values mean weaker binding, low ones tighter binding. The EC50 is the midpoint of the concentration-response curve.

(Values after patent publication US9073855B2, “BCL-2 selective apoptosis-inducing agents for the treatment of cancer and immune diseases” (AbbVie Inc., priority 2008, dated 2015).)
